Source: patent US20200291082A1, “PREVENTION AND TREATMENT OF GRAFT-VERSUS-HOST-DISEASE WITH DEFENSINS” (priority 2017, published 2020)

Tests used:
[1] = tested on: house dust mite model of allergic asthma; test: therapeutic intranasal versus oral hBD2 in murine house dust mite model of allergic asthma (Example 10); type: in vivo, BALB/c mice; conditions: dexamethasone 1 mg/kg BID oral; hBD2 both IN doses (0.4 mg/kg/day TID and 1.7 mg/kg/day TID)
Method: To determine and assess the efficacy of IN versus oral therapeutic intervention with defensins in a murine house dust mite model of allergic asthma.
Treatment regime: Female 7-10 weeks old BALB/c mice were randomly allocated into 7 study groups one day prior to study start and subcutaneously (SC) sensitized to house dust mite (100 μg HDM in 200 μL saline plus Freund's complete adjuvant in 0.9% saline). Mice were then intranasally (IN) challenged with HDM on day 14 (HDM 25 μg in 50 μL of saline). Dexamethasone was administered orally (1 mg/kg BID; 50 μL phosphate buffered saline (PBS)) on day 14. hBD2 was administered IN or orally (1.7 mg/kg TID IN; 0.4 mg/kg TID IN; 0.4 mg/kg TID orally, 50 μL phosphate buffered saline) on day 14. The initial dose was administered 60 minutes prior to challenge, and the subsequent doses approximately 6 hours apart (FIG. 5).
Airway inflammation: At 48 hours post challenge, bronchoalveolar lavage was performed washing the lungs with 3 volumes of cold PBS (0.4; 0.3 and 0.3 mL, total 1 mL). Total and differential leucocyte cell counts were determined on an automated haematological analyser Sysmex XT-2000iV.
Data are represented as airway resistance at […] methacholine and as dose responsive curves.
Lung sampling for cytokine analysis: After completion of every BAL, lungs were removed from the thorax, snap frozen in liquid nitrogen and stored frozen at −80 degrees Celsius until analysis of cytokine concentration of IL-1β, TNF-α, IL-6, IL-10 and IFNγ by ELISA.

[2] = tested on: CD4+CD25+ Tcell transfer induced colitis; test: therapeutic murine 14 weeks CD4+CD25+ Tcell transfer induced colitis model (Example 6); type: in vivo, SCID mice; conditions: hBD2 1 mg/kg s.c. OD, Dexamethasone 0.3 mg/kg i.p. OD, Enbrel 100 μg/mouse s.c. twice weekly
From the text: Efficacy of s.c. administration of hBD2 versus s.c. anti TNF-α (Enbrel) and intraperitoneal dexamethasone in a therapeutic, murine, 14 weeks, CD4+CD25+ Tcell transfer induced colitis model.
70 female BALB/c mice housed in groups of five per cage were allocated to 7 different treatment groups. Colitis was induced in SCID mice by transplantation of CD4+CD25+ Tcells from BALB/c mice. Lymphocytes isolated from spleen and lymph nodes from BALB/c mice were subjected to negative selection of CD4+ Tcells. Afterwards, CD4+CD25+ cells were positively isolated by binding to the beads from the CD4+ Tcell suspensions and the CD4+CD25− were collected from the supernatant. The animals were treated with hBD2, 0.1 mg/kg s.c. OD; 1 mg/kg s.c. OD or 3 mg/kg s.c. OD or with mouse anti TNFα 100 μg/mouse s.c. twice weekly or with dexamethasone 0.3 mg/kg intraperitoneally OD or PBS s.c. as vehicle from day 7 and 86 consecutive days.
Clinical assessment was based on body weight loss, stool consistency and presence of blood per rectum. The animals were sacrificed on day 95 and colon removed for assessment of weight and myeloperoxidase activity.

[3] = tested on: Dextran Sodium Sulphate induced colitis; test: prophylactic murine 10-day oral Dextran Sodium Sulphate induced colitis model, oral hBD2 versus oral prednisolone (Example 2); type: in vivo, C57BL/6 mice; conditions: versus vehicle; Prednisolone 1 mg/kg twice per day p.o.; oral hBD2 all doses
Method: Anti-inflammatory effect of oral administration of hBD2 versus oral prednisolone in a prophylactic murine, 10-day, oral Dextran Sodium Sulphate induced colitis model.
50 male C57BL/6 mice housed in groups of five per cage were allocated to 5 different treatment groups. All animals had their drinking water supplemented with DSS 2% for 7 days to induce colitis resulting in significant inflammation and injury of the colonic tissue. The animals were treated with oral hBD2 dosed at three different dose levels twice per day or prednisolone 1 mg/kg twice per day or PBS as vehicle for 10 days.
(§1) A disease activity index (DAI) scoring system was applied for clinical assessment (FIG. 7). The animals were sacrificed on day 10 and colon removed for histological assessment employing a histological scoring system (FIG. 8).

[4] = tested on: Trinitrobenzene Sulfonic Acid induced colitis; test: prophylactic murine 8-day Trinitrobenzene Sulfonic Acid induced colitis model (Example 3); type: in vivo, BALB/cByJ mice; conditions: Prednisolone 10 mg/kg s.c. once daily; hBD2 at 0.1, 0.3 and 1 mg/kg s.c. once daily
Method: Anti-inflammatory effect of s.c. administration of hBD2 versus s.c. prednisolone in a prophylactic murine, 8-day Trinitrobenzene Sulfonic Acid induced colitis model.
105 male BALB/cByJ mice housed in groups of five per cage were allocated to 7 different treatment groups. Colitis was induced by intracolonic administration of trinitrobenzene sulfonic acid on day 0 under light anaesthesia resulting in significant inflammation and injury of the colonic tissue. The animals were treated with hBD2 at four different dosing levels once daily (1 mg/kg, 0.3 mg/kg, 0.1 mg/kg, and 0.03 mg/kg) or Prednisolone 10 mg/kg once daily dosed subcutaneously under the dorsal skin or PBS as vehicle for 7 days.
as §1

[5] = tested on: microbiota in diet-induced obese mice; test: interventional treatment of dysbiosis with defensins in diet-induced obese mice (Example 8); type: in vivo
From the text: Mice and diets. The experiment elucidates the effect of hBD2 and HD5 on the microbiota in diet-induced obese mice. A run-in period of 13 weeks where mice were fed a very HFD (60% energy from fat) preceded the intervention. Only mice meeting the criteria of a minimum of 12 gram weight gain (approximately 50% of initial bodyweight) during the run-in period were included in the final analyses. […] They were exposed to all experimental tests, but excluded from the analyses.
Treatment regimen. Before the intervention all mice were MR scanned. Cages of mice were allocated to experimental groups based on their fat mass. All subsequent measures were paired with data from the same mouse before the intervention. A LFD (low fat diet) reference group was running in parallel. As controls for the intervention 2 additional groups were included: 1 very HFD and 1 LFD. Experimental mice stayed on the very HFD during the intervention (FIG. 3). The mice were on the experimental diet for 10 weeks. They were co-housed throughout the experiment, 4 mice per cage, 3 cages per group. All tests ran over 3 days, 1 cage per group per day.
Tests. Microbial analyses were carried out to study the microbiota of the intestine.
Longitudinal 16S characterization was conducted on 4 paired samples from 60 mice, 240 samples in total. Each mouse was sampled prior to diet change, 1 week post diet change, 4 weeks post diet change and at termination, thus ensuring a thorough characterization of the faecal microbiota as a result of defensin treatment.

[6] = tested on: acute graft versus host disease following stem cell transplantation; test: prophylactic oral HD5 or hBD-2 in murine model of acute graft versus host disease (Example 15); type: in vivo, BALB/c mice
Method: To determine and assess the efficacy of prophylactic treatment with oral HD5 in a murine model of acute graft versus host disease following stem cell transplantation.
Treatment regime: 22 female BALB/c mice were irradiated with 4.5 Gy (2×498 sec) at intervals of at least 4 hours on day 0. Bone marrow was harvested: hind limbs harvested from 2 female WT C57BL/6 mice aseptically. Skeletal muscle was removed and epiphysis cut away. Lumen of bone flushed with PBS and cells pelleted and taken up. Harvest of T-cells: spleens from 2 female WT C57BL/6 mice were meshed through a […] cell strainer into a PBS filled dish. Cells were taken up in PBS and transferred into a 50 mL falcon tube and spun down. Cells were taken up in 1 mL PBS and 20 μL of CD4 microbead+20 μL CD8 microbeads per spleen added for incubation for 20 min at 4 degrees C. Cells were washed with PBS and applied to MACS separation in order to positively select CD4+ and CD8+ cells. Positively selected T-cells were counted and taken up. Transplantation: directly after the second irradiation, all WT BALB/c recipient mice were injected with 5×1.000.000 BM cells (50 μL) i.v. into the retroorbital venous plexus under isoflurane anesthesia. 22 BALB/c mice were treated with 1.2 mg of HD5/kg BW/day; 1.2 mg of hBD-2/kg BW/day or 100 μL of PBS per day vial oral gavage from day 0-10.
Survival was monitored for 60 days.

[7] = tested on: gut microbiota in high fat diet murine model; test: prophylactic treatment with defensins in murine high fat diet model, gut microbiota (Example 7); type: in vivo, mice
From the text: Protection and preservation of gut microbiota by prophylactic treatment with defensins. Mice: Mice were housed in trios, 4 cages per group. Feed intake was registered daily just before lights were turned off at 6 pm. Individual mice were subjected to experimental procedures in altered order both group and cage wise. Mice were kept at room temperature under a 12-hour light/dark cycle at SPF standard conditions. Diets: For dosing, the average weight was estimated to be 25 grams per mouse. Mice eat approximately 3 grams of feed per mouse per day. Treatment regime: Mice were fed either a high fat diet (HFD) or a low fat (LF) control diet. The HFD contained 4 subgroups; 1 hBD2, 1 HD5, 1 hBD2/HD5 and 1 standard HFD without supplementation of defensins (FIG. 3). Defensin concentration was 1,2 mg hBD2 per kg mouse per day. HD5 was given in equimolar concentration to hBD2. […] Microbial analyses were carried out to study the microbiota of the intestine. Longitudinal 16S characterization was conducted on 4 paired samples from 60 mice, 240 samples in total. Each mouse was sampled prior to diet change, 1 week post diet change, 4 weeks post diet change and at termination, thus ensuring a thorough characterization of the faecal microbiota as a result of defensin treatment.

[8] = tested on: bacteria at the surface of the intestinal mucosa; test: anti microbial effect of orally administered defensins, mucin immunostaining and localization of bacteria by FISH (Example 16); type: in vivo; conditions: compared with mice on low fat or western diet
Method: Anti microbial effect of orally administered defensins (HD5 and hBD-2).
Mucus immunostaining was paired with fluorescent in situ hybridization (FISH), as previously described in order to analyze bacteria localization at the surface of the intestinal mucosa. Briefly, colonic tissues (proximal colon, 2nd cm from the cecum) without fecal material were placed in methanol-Carnoy's fixative solution (60% methanol, 30% chloroform, 10% glacial acetic acid) for a minimum of 3 hours at room temperature. Tissues were then washed in methanol 2×30 min, ethanol 2×15 min, ethanol/xylene (1:1), 15 min and xylene 2×15 min, followed by embedding in Paraffin with a vertical orientation. Five pm sections were performed and dewax by preheating at 60° C. for 10 min, followed by xylene 60° C. for 10 min, xylene for 10 min and 99.5% ethanol for 10 minutes. Hybridization step was performed at 50° C. overnight with EUB338 probe (5′-GCTGCCTCCCGTAGGAGT-3′, with a 5′ labeling using Alexa 647) diluted to a final concentration of 10 μg/mL in hybridization buffer (20 mM Tris-HCl, pH 7.4, 0.9 M NaCl, 0.1% SDS, 20% formamide). After washing 10 min in wash buffer (20 mM Tris-HCl, pH 7.4, 0.9 M NaCl) and 3×10 min in PBS, PAP pen (Sigma-Aldrich) was used to mark around the section and block solution (5% fetal bovine serum in PBS) was added for 30 min at 4° C. […]

[9] = HFD plus HD5, after dietary intervention

Compound: C[C@@H]1C[C@H]2[C@@H]3CCC4=CC(=O)C=C[C@]4(C)[C@@]3(F)[C@@H](O)C[C@]2(C)[C@@]1(O)C(=O)CO [Dexamethasone, reference compound]
- macrophage counts in BALF [1]: failed to inhibit
- neutrophil counts in BALF [1]: failed to inhibit

Compound: Enbrel [reference compound]
- myeloperoxidase activity ([2]; colon, day 95): statistically significant and similar effect
- clinical score (body weight loss, stool consistency, presence of blood per rectum) [2]: statistically significant and similar effect on clinical score
- colon weight ([2]; day 95): statistically significant and similar effect on colon weight

Compound: C[C@]12C=CC(=O)C=C1CC[C@@H]1[C@@H]2[C@@H](O)C[C@@]2(C)[C@H]1CC[C@]2(O)C(=O)CO [Prednisolone, reference compound]
- histological score [3]: statistically significant effect on histological score
- histological score [4]: highly statistically significant clinical effect on histological score

Compound: human intestinal alpha defensin 5 (ATCYCRTGRCATRESLSGVCEISGRLYRLCCR; listed as Homo sapiens) [HD5]
- fat percentage ([5]; HFD plus HD5, 4 weeks after dietary change, versus HFD control): significantly lower fat percentage
- fat percentage [5, 9]: tendency of decreasing fat percentage
- weight gain [5, 9]: gained significantly less weight than the HFD control
- abundance of Alloprevotella ([5]; colon): increased the abundance of Alloprevotella statistically significantly
- relative abundance of Bifidobacteriaceae ([5]; small intestine): trend towards HD5 increasing the abundance
- mortality ([6]; FIG. 58, oral treatment for 10 days from day of stem cell transplantation): significant reduction of mortality
- treated animals that had died by day 60 ([6]; oral 1.2 mg/kg/day day 0-10, six out of eight PBS mice died): 2 out of 8
- microbial presence and abundance (unifrac analysis) ([7]; prophylactic oral defensins in high fat diet): affected primarily the microbial abundance
- abundance of Allobaculum ([7]; small intestine, prophylaxis with HD5): statistically significant increase of abundance of Allobaculum
- lysis zone, distance between intestinal wall and bacterial population [8]: profound effect on the distance
